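48-hour exposure; five concentrations; linearly interpolated endpoints. Here, GI50 denotes the concentration required for 50% inhibition of growth. TGI: total growth inhibition.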 Bounds are passed on as bounds.

Common to all, as to assay: growth of human tumour cells (NCI), 48 h
In test [1] the test system is M14 melanoma.
The subject of test [2] is A549 NSCLC.
Test [3] concerns HL-60(TB) leukemia.
In test [4] the test system is CCRF-CEM leukemia.
Test [5] relates to BT-549 breast.
Test [6] has as its system HT29 colon.
In test [7] the test system is UACC-62 melanoma.
Test [8] deals with RXF 393 renal.
Test [9] has as its system OVCAR-4 ovarian.
Test [10] relates to SN12C renal.

As for `O=C1NC(=NCCc2ccc(F)cc2)S/C1=C\c1ccc2ncccc2c1`, the GI50 in [1], in test [2], in test [3], in [4], in test [5] and in test [6] was above 25 µM each time. For the same compound, the GI50 in test [7], in test [8], in test [9] and in [10] was above 25 µM each time. For the same compound, the TGI in test [1], in test [2], in test [3], in test [4], in test [5] and in [6] was above 25 µM throughout. The TGI in test [7], in test [8], in test [9] and in test [10] was above 25 µM each time.
In the case of `O=C(Nc1ccc(Oc2ccc3nc(NC(=O)c4ccco4)[nH]c3c2)cc1)Nc1cc(C(F)(F)F)ccc1F`, the GI50 in [1] was 0.786 µM; in [2] it was 3.19 µM; in [3] it was 0.823 µM; in test [4], 1.85 µM; in test [5], 2.08 µM; in [6], 1.18 µM. Further, the GI50 in test [7] was 0.844 µM; in [8] it was 1.28 µM; in test [9] it was 1.25 µM; in [10], 0.89 µM. Moreover, the TGI is 5.16 µM in test [1]; 11.8 µM in test [2]; 7.07 µM in [3]; above 25 µM in test [4]; 6.05 µM in test [5]; 6.09 µM in [6]. Besides, the TGI in [7] is 5.48 µM; in test [8] it was 5.13 µM; in test [9], above 13.8 µM; in test [10], 10.9 µM.
As for `O=C1CC(c2c[nH]c3ccc(F)cc23)C(=O)N1` (stereo not given), the GI50 in test [1], in test [2], in test [3], in [4], in [5] and in test [6] was above 100 µM in each case. The GI50 in [7], in test [8], in test [9] and in test [10] was above 100 µM throughout. For the same compound, the TGI in [1], in test [2], in test [3], in [4], in [5] and in test [6] was above 100 µM each time. In addition, the TGI in [7], in test [8], in test [9] and in [10] was above 100 µM in each case.
For `CO[C@H]1C[C@@H]2CC[C@@H](C)[C@@](O)(O2)C(=O)C(=O)N2CCCC[C@H]2C(=O)O[C@H]([C@H](C)C[C@@H]2CC[C@@H](OC(=O)C(C)(CO)CO)[C@H](OC)C2)CC(=O)[C@H](C)/C=C(\C)[C@@H](O)[C@@H](OC)C(=O)[C@H](C)C[C@H](C)\C=C/C=C/C=C/1C`, the GI50 in test [1] is above 6.06 µM; in test [2] it was 0.067 µM; in test [3], above 10 µM; in test [4], 0.0368 µM; in test [5] it was 0.00363 µM; in test [6], 1.47 µM. Besides, the GI50 was 0.0087 µM in [7], below 0.001 µM in test [8], below 0.001 µM in test [9] and above 10 µM in [10]. Moreover, the TGI in test [1], in [2], in test [3], in test [4], in [5] and in test [6] was above 10 µM throughout. The TGI in test [7], in [8], in test [9] and in [10] was above 10 µM throughout.
As to `Oc1ccc(Cl)cc1C(c1cc(Cl)ccc1O)C(Cl)(Cl)Cl`, the GI50 in test [1] is 1.78 µM; in test [2] it was 2.68 µM; in [3], 2.45 µM; in [4], 3.2 µM; in test [5], 1.82 µM; in test [6], 2.05 µM. For the same compound, the GI50 is 1.59 µM in [7], 1.95 µM in test [8], 2.71 µM in test [9] and 1.67 µM in test [10]. Further, the TGI in test [1] was 3.62 µM; in [2] it was 8.25 µM; in test [3], 5.13 µM; in test [4], 8.02 µM; in test [5], 4.71 µM; in test [6] it was 4 µM. Further, the TGI in [7] was 3.82 µM; in test [8] it was 4.16 µM; in test [9], 10.7 µM; in test [10] it was 3.28 µM.
Turning to `Clc1nccc2c(-c3csc(-c4c[nH]c5ccc(Br)cc45)n3)c[nH]c12`, the GI50 in test [1] is 2.22 µM; in test [2], 3.83 µM; in [3], 2.64 µM; in [4] it was 3.16 µM; in test [5], 4.7 µM; in [6], 2.66 µM. The GI50 in [7] is 2.19 µM; in test [8] it was 1.48 µM; in test [9] it was 3.25 µM; in test [10], 3.35 µM. For the same compound, the TGI in test [1] was 5.62 µM; in test [2] it was 12.8 µM; in test [3], 14.1 µM; in [4], 20.9 µM; in test [5], 24.4 µM; in [6], 8.22 µM. Further, the TGI was 4.84 µM in [7], 3.43 µM in [8], 15.9 µM in [9] and 14.4 µM in test [10].
